Experimental data from the supplement of paper PMC6045584.
± gives the standard deviation of the averaged measurements.

Tests used:
[1] = compound: C[C@]12CC[C@H](O)CC1=CC[C@@H]1[C@@H]2CC[C@]2(C)C(c3cccnc3)=CC[C@@H]12 [ABIRATERONE]; assay: surviving fraction relative to DMSO-only wells; higher = less growth inhibition; conditions: exposure time: 5 days
Method in brief: (§1)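 Continuous five-day exposure to inhibitors at 0.5, 1, 5, 10, 50, 100, 500 and 1000 nM started 24 hours after log-phase tumour cell lines were seeded at 250–500 cells per well in 384-well plates. Luminescence was read after 10 minutes at room temperature. Viability is given as surviving fraction, meaning CellTiter-Glo luminescence normalised to the median of DMSO-only wells.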

[2] = compound: CN1CCN(c2nc(C3=C(c4c[nH]c5ccccc45)C(=O)NC3=O)c3ccccc3n2)CC1 [SOTRASTAURIN/AEB071]; assay: as above; conditions: exposure time: 5 days
Method in brief: as §1

Row | Test System | surviving fraction ([1]; 0.5 nM) | surviving fraction ([1]; 1 nM) | surviving fraction ([1]; 5 nM) | surviving fraction ([1]; 10 nM) | surviving fraction ([1]; 50 nM) | surviving fraction ([1]; 100 nM) | surviving fraction ([1]; 500 nM) | surviving fraction ([1]; 1000 nM) | surviving fraction ([2]; 0.5 nM) | surviving fraction ([2]; 1 nM) | surviving fraction ([2]; 5 nM) | surviving fraction ([2]; 10 nM) | surviving fraction ([2]; 50 nM) | surviving fraction ([2]; 100 nM) | surviving fraction ([2]; 500 nM) | surviving fraction ([2]; 1000 nM)
1 | SUM159 BREAST | 1.11 ± 0.053 | 0.994 ± 0.16 | 0.99 ± 0.17 | 0.952 ± 0.21 | 1.11 ± 0.05 | 0.963 ± 0.24 | 1.03 ± 0.15 | 0.961 ± 0.2 | 1.1 ± 0.02 | 1.12 ± 0.028 | 1.11 ± 0.016 | 1.08 ± 0.026 | 1.06 ± 0.021 | 1.09 ± 0.015 | 1.07 ± 0.028 | 1.04 ± 0.021
2 | SYO1 SYNOVIAL | 1.01 ± 0.048 | 1.03 ± 0.02 | 1.03 ± 0.014 | 1.01 ± 0.013 | 1.031 ± 0.0036 | 1.03 ± 0.029 | 1.01 ± 0.018 | 1.01 ± 0.062 | 1.02 ± 0.053 | 1.01 ± 0.058 | 1.04 ± 0.063 | 0.991 ± 0.068 | 0.869 ± 0.031 | 0.875 ± 0.021 | 0.891 ± 0.038 | 0.909 ± 0.038
3 | T47D BREAST | 1.04 ± 0.048 | 1.08 ± 0.031 | 1.05 ± 0.018 | 1.08 ± 0.063 | 1.18 ± 0.068 | 1.14 ± 0.022 | 1.1 ± 0.069 | 1.13 ± 0.051 | 1.03 ± 0.05 | 1.042 ± 0.0044 | 0.988 ± 0.034 | 1.03 ± 0.038 | 1.03 ± 0.05 | 1.05 ± 0.014 | 1.1 ± 0.028 | 1.09 ± 0.022
4 | U2OS BONE | 1.04 ± 0.05 | 1.03 ± 0.029 | 1.1 ± 0.035 | 1.096 ± 0.004 | 1.19 ± 0.031 | 1.08 ± 0.022 | 1.1 ± 0.016 | 1.09 ± 0.032 | 1.04 ± 0.058 | 1.008 ± 0.0065 | 1.11 ± 0.037 | 1.044 ± 0.0091 | 1.03 ± 0.051 | 1.02 ± 0.045 | 0.939 ± 0.027 | 0.929 ± 0.029
5 | VCAP PROSTATE | 1.13 ± 0.024 | 1.07 ± 0.083 | 1.19 ± 0.049 | 1.12 ± 0.073 | 1.22 ± 0.1 | 1.18 ± 0.18 | 1.02 ± 0.1 | 0.967 ± 0.11 | 1.08 ± 0.18 | 1.01 ± 0.11 | 1.08 ± 0.06 | 1.03 ± 0.096 | 0.883 ± 0.1 | 1.1 ± 0.052 | 0.941 ± 0.085 | 0.931 ± 0.13
6 | VP229 BREAST | 1.03 ± 0.052 | 0.99 ± 0.032 | 0.997 ± 0.1 | 1.09 ± 0.1 | 1.03 ± 0.013 | 1.04 ± 0.03 | 1.26 ± 0.16 | 1.11 ± 0.16 | 1.07 ± 0.054 | 1.23 ± 0.1 | 0.995 ± 0.023 | 1.04 ± 0.13 | 0.952 ± 0.084 | 0.812 ± 0.059 | 0.956 ± 0.13 | 0.856 ± 0.19
7 | YAMATO SYNOVIAL | 1.37 ± 0.033 | 1.52 ± 0.058 | 1.48 ± 0.12 | 1.45 ± 0.14 | 1.39 ± 0.14 | 1.46 ± 0.078 | 1.38 ± 0.025 | 1.22 ± 0.14 | 1.14 ± 0.068 | 1.23 ± 0.018 | 1.28 ± 0.13 | 1.38 ± 0.11 | 0.962 ± 0.096 | 0.968 ± 0.032 | 0.945 ± 0.024 | 0.96 ± 0.059
8 | ZR751 BREAST | 1.1 ± 0.11 | 1.18 ± 0.16 | 1.15 ± 0.1 | 1.19 ± 0.099 | 1.09 ± 0.19 | 1.08 ± 0.17 | 0.854 ± 0.13 | 0.731 ± 0.21 | 1.19 ± 0.11 | 1.3 ± 0.22 | 1.1 ± 0.15 | 1.16 ± 0.15 | 1.07 ± 0.092 | 1.1 ± 0.039 | 0.983 ± 0.15 | 1 ± 0.12
